The values below come from US7541351B2, “Compounds for the treatment of hepatitis C” (Bristol-Myers Squibb Company, priority 2007, dated 2009).

For assay [1], the target named is T1, HCV NS5B RdRp genotype 1b (Hepatitis C virus genotype 1b, UniProt Q9WMX2).
T1 construct: The protein was expressed with an 18 amino acid C-terminal truncation to enhance the solubility; made in house; host or cells: E. coli BL21 (DE3)
In words: Modified HCV NS5B RdRp enzyme assay (preincubation protocol). Format: biochemical. The protocol:
HCV NS5B RdRp cloning, expression, and purification. The cDNA encoding the NS5B protein of HCV, genotype 1b, was cloned into the pET21a expression vector. The protein was expressed with an 18 amino acid C-terminal truncation to enhance the solubility. The E. coli competent cell line BL21 (DE3) was used for expression of the protein. Cultures were grown at 37° C. for ˜4 hours until the cultures reached an optical density of 2.0 at 600 nm. The cultures were cooled to 20° C. and induced with 1 mM IPTG. Fresh ampicillin was added to a final concentration of 50 μg/ml and the cells were grown overnight at 20° C.
Cell pellets (3 L) were lysed for purification to yield 15-24 mgs of purified NS5B. The lysis buffer consisted of 20 mM Tris-HCl, pH 7.4, 500 mM NaCl, 0.5% triton X-100, 1 mM DTT, 1 mM EDTA, 20% glycerol, 0.5 mg/ml lysozyme, 10 mM MgCl2, 15 ug/ml deoxyribonuclease I, and Complete TM protease inhibitor tablets (Roche). After addition of the lysis buffer, frozen cell pellets were resuspended using a tissue homogenizer. To reduce the viscosity of the sample, aliquots of the lysate were sonicated on ice using a microtip attached to a Branson sonicator. The sonicated lysate was centrifuged at 100,000×g for 1 hr at 4° C. and filtered through a 0.2 μm filter unit (Corning).
The protein was purified using three sequential chromatography steps: Heparin sepharose CL-6B, polyU sepharose 4B, and Hitrap SP sepharose (Pharmacia). The chromatography buffers were identical to the lysis buffer but contained no lysozyme, deoxyribonuclease I, MgCl2 or protease inhibitor and the NaCl concentration of the buffer was adjusted according to the requirements for charging the protein onto the column. Each column was eluted with a NaCl gradient which varied in length from 5-50 column volumes depending on the column type. After the final chromatography step, the resulting purity of the enzyme is >90% based on SDS-PAGE analysis. The enzyme was aliquoted and stored at −80° C.
Standard HCV NS5B RdRp enzyme assay. HCV RdRp genotype 1b assays were run in a final volume of 60 μl in 96 well plates (Costar 3912). The assay buffer is composed of 20 mM Hepes, pH 7.5, 2.5 mM KCl, 2.5 mM MgCl2, 1 mM DTT, 1.6 U RNAse inhibitor (Promega N2515), 0.1 mg/ml BSA (Promega R3961), and 2% glycerol. All compounds were serially diluted (3-fold) in DMSO and diluted further in water such that the final concentration of DMSO in the assay was 2%. HCV RdRp genotype 1b enzyme was used at a final concentration of 28 nM. A polyA template was used at 6 nM, and a biotinylated oligo-dT 12 primer was used at 180 nM final concentration. Template was obtained commercially (Amersham 27-4110). Biotinylated primer was prepared by Sigma Genosys. 3H-UTP was used at 0.6 μCi (0.29 μM total UTP). Reactions were initiated by the addition of enzyme, incubated at 30° C. for 60 min, and stopped by adding 25 μl of 50 mM EDTA containing SPA beads (4 μg/μl, Amersham RPNQ 0007). Plates were read on a Packard Top Count NXT after >1 hr incubation at room temperature.
Modified HCV NS5B RdRp enzyme assay. A modified enzyme assay was performed essentially as described for the standard enzyme assay except for the following: The biotinylated oligo dT12 primer was precaptured on streptavidin-coated SPA beads by mixing primer and beads in assay buffer and incubating at room temperature for one hour. Unbound primer was removed after centrifugation. The primer-bound beads were resuspended in 20 mM Hepes buffer, pH 7.5 and used in the assay at final concentrations of 20 nM primer and 0.67 μg/μl beads. Order of addition in the assay: enzyme (14 nM) was added to diluted compound followed by the addition of a mixture of template (0.2 nM), 3H-UTP (0.6 μCi, 0.29 μM), and primer-bound beads, to initiate the reaction; concentrations given are final. Reactions were allowed to proceed for 4 hours at 30° C.
IC50 values for compounds were determined using seven different [I]. […]

A further assay deals with HCV replicon cells. In words: HCV replicon FRET assay. Format: cell-based. The source says: FRET Assay Preparation. To perform the HCV FRET screening assay, 96-well cell culture plates were used. The FRET peptide (Anaspec, Inc.) (Taliani et al., Anal. Biochem. 1996, 240, 60-67) contains a fluorescence donor, EDANS, near one end of the peptide and an acceptor, DABCYL, near the other end. The fluorescence of the peptide is quenched by […] resonance energy transfer (RET) between the donor and the acceptor, but as the NS3 protease cleaves the peptide the products are released from RET quenching and the fluorescence of the donor becomes apparent. The assay reagent was made as follows: 5× cell Luciferase cell culture lysis reagent from Promega (#E153A) diluted to 1× with dH2O, NaCl added to 150 mM final, the FRET peptide diluted to 20 μM final from a 2 mM stock.
To prepare plates, HCV replicon cells, with or without a Renilla luciferase reporter gene, were trypsinized and placed into each well of a 96-well plate with titrated test compounds added in columns 3 through 12; columns 1 and 2 contained a control compound (HCV protease inhibitor), and the bottom row contained cells without compound. The plates were then placed in a CO2 incubator at 37° C.
Assays. Subsequent to addition of the test compounds described above (FRET Assay Preparation), at various times the plate was removed and Alamar blue solution (Trek Diagnostics, #00-100) was added per well as a measure of cellular toxicity. After reading in a Cytoflour 4000 instrument (PE Biosystems), plates were rinsed with PBS and then used for FRET assay by the addition of 30 ul of the FRET peptide assay reagent described above (FRET Assay Preparation) per well. The plate was then placed into the Cytoflour 4000 instrument which had been set to 340 excite/490 emission, automatic mode for 20 cycles and the plate read in a kinetic mode. Typically, the signal to noise using an endpoint analysis after the reads was at least three-fold. Alternatively, after Alamar blue reading, plates were rinsed with PBS, 50 ul of DMEM (high glucose) without phenol red was added and plates were then used for luciferase assay using the Promega Dual-Glo Luciferase Assay System.
Compound analysis was determined by quantification of the relative HCV replicon inhibition and the relative cytotoxicity values. To calculate cytoxicity values, the average Alamar Blue fluorescence signals from the control wells were set as 100% non-toxic. The individual signals in each of the compound test wells were then divided by the average control signal and multiplied by 100% to determine […]. To calculate the HCV replicon inhibition values, an average background value was obtained from the two wells containing the highest amount of HCV protease inhibitor at the end of the assay period. These numbers were similar to those obtained from naïve Huh-7 cells.
The background numbers were then subtracted from the average signal obtained from the control wells and this number was used as 100% activity. The individual signals in each of the compound test wells were then divided by the averaged control values after background subtraction and multiplied by 100% to determine percent activity. EC50 values for a protease inhibitor titration were calculated as the concentration which caused a 50% reduction in FRET or luciferase activity. The two numbers generated for the compound plate, percent cytoxicity and percent activity were used to determine compounds of interest for further analysis.
(In general: Replicon systems follow genome replication, usually without infectious particles.)

Where two headings read alike, the source gives them in different places.

T1 sequence (Q9WMX2 2420-2992): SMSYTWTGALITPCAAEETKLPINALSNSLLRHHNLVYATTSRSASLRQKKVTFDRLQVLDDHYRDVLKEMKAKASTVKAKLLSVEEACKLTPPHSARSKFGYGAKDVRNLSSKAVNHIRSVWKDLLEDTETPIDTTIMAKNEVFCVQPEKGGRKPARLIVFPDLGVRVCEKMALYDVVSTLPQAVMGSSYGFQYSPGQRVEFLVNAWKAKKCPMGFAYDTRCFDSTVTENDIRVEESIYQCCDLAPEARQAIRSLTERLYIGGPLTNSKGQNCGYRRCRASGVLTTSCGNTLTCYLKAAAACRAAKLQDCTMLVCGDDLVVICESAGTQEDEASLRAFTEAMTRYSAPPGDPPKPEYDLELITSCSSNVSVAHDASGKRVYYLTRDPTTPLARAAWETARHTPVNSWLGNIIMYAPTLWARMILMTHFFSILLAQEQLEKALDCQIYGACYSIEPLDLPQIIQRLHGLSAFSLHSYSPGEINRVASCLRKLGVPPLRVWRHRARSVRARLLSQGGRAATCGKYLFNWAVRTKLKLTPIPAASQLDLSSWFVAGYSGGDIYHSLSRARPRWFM

A word on the IC50: it is the concentration needed to halve the response being measured. As usually defined, the EC50 is the concentration giving half of the maximal effect. A high value points to a need for much substance. As to `COc1ccc2c(c1)C=C(C(=O)N1CC3CCC(C1)N3C(=O)OC(C)(C)C)Cn1c-2c(C2CCCCC2)c2ccc(C(=O)NS(=O)(=O)N(C)C)cc21`, in assay [1], the IC50 fell in the range of 1 to 500 nM. In the assay with HCV replicon cells (Hepatitis C virus), this compound came in with an EC50 of 1 to 500 nM.

`COc1ccc2c(c1)C=C(C(=O)N1CC3CCC(C1)N3)Cn1c-2c(C2CCCCC2)c2ccc(C(=O)NS(=O)(=O)N(C)C)cc21` came in with an IC50 in assay [1] of 1 to 500 nM. This compound also showed an EC50 with HCV replicon cells (Hepatitis C virus) of 1 to 500 nM.

`COc1ccc2c(c1)CC(C(=O)N1C3CCC1CN(C)C3)Cn1c-2c(C2CCCCC2)c2ccc(C(=O)NS(=O)(=O)N(C)C)cc21` (stereo not drawn) gave a 50% inhibitory concentration (IC50) in assay [1] of 1 to 500 nM. For the same compound, the EC50 with HCV replicon cells (Hepatitis C virus) was in the range of 1 to 500 nM.

On to `COc1ccc2c(c1)C=C(C(=O)N1CC3CCC(C1)N3C)Cn1c-2c(C2CCCCC2)c2ccc(C(=O)NS(=O)(=O)N(C)C)cc21`, for which the IC50 in assay [1] is 1 to 500 nM. The EC50 in the assay with HCV replicon cells (Hepatitis C virus) lay within 1 to 500 nM.

`COc1cccc2c1C=C(C(=O)N1C3CCC1CN(C)C3)Cn1c-2c(C2CCCCC2)c2ccc(C(=O)NS(=O)(=O)N(C)C)cc21` registered an IC50 in assay [1] of 1 to 500 nM. The compound also displayed an EC50 in the assay with HCV replicon cells (Hepatitis C virus) of 1 to 500 nM.

`COc1cccc2c1C=C(C(=O)N1CC3CCC(C1)N3C(=O)OC(C)(C)C)Cn1c-2c(C2CCCCC2)c2ccc(C(=O)NS(=O)(=O)N(C)C)cc21` came in with an IC50 in assay [1] of 1 to 500 nM. Besides, the EC50 with HCV replicon cells (Hepatitis C virus) was 1 to 500 nM.

The compound `COc1cccc2c1C=C(C(=O)N1CC3CCC(C1)N3)Cn1c-2c(C2CCCCC2)c2ccc(C(=O)NS(=O)(=O)N(C)C)cc21` had an IC50 in assay [1] of 1 to 500 nM. The compound also showed an EC50 with HCV replicon cells (Hepatitis C virus) of 1 to 500 nM.

For the compound `COc1cccc2c1C=C(C(=O)N1CC3CCC(C1)N3C)Cn1c-2c(C2CCCCC2)c2ccc(C(=O)NS(=O)(=O)N(C)C)cc21`, the IC50 in assay [1] was 1 to 500 nM. Moreover, in the assay with HCV replicon cells (Hepatitis C virus), the EC50 was 1 to 500 nM.

The compound `COc1ccc2c(c1)C=C(C(=O)N1C3CCC1CN(C1CC1)C3)Cn1c-2c(C2CCCCC2)c2ccc(C(=O)NS(=O)(=O)N(C)C)cc21` came in with an IC50 in assay [1] of less than 20 nM. For the same compound, the EC50 in the assay with HCV replicon cells (Hepatitis C virus) lay in the range of 1 to 500 nM.

`COC(=O)c1ccc2c(C3CCCCC3)c3n(c2c1)CC(C(=O)N1C2CCC1CN(C)C2)=Cc1c(OC(F)(F)F)cccc1-3` displayed an IC50 in assay [1] greater than 500 nM. In the assay with HCV replicon cells (Hepatitis C virus), this compound registered an EC50 greater than 500 nM.

`CN1CC2CCC(C1)N2C(=O)C1=Cc2c(OC(C)(F)F)cccc2-c2c(C3CCCCC3)c3ccc(C(=O)NS(=O)(=O)N(C)C)cc3n2C1` yielded an IC50 in assay [1] greater than 500 nM. In the assay with HCV replicon cells (Hepatitis C virus), this compound showed an EC50 greater than 500 nM.

As to `COc1ccc2c(c1)C=C(C(=O)N1C3CCC1CN(C)C3)Cn1c-2c(C2CCCCC2)c2ccc(C(=O)NS(=O)(=O)C3CC3)cc21`, in assay [1], the IC50 is 1 to 500 nM. The same compound had an EC50 in the assay on HCV replicon cells (Hepatitis C virus) of 1 to 500 nM.

`COC(=O)c1ccc2c(C3CCCCC3)c3n(c2c1)CC(C(=O)N1C2CCC1CN(C)C2)=Cc1cc(OC)ccc1-3` showed an IC50 in assay [1] greater than 500 nM. Moreover, the EC50 in the assay on HCV replicon cells (Hepatitis C virus) is greater than 500 nM.

Turning to `COc1ccc2c(c1)C=C(C(=O)N1C3CCC1CN(C)C3)Cn1c-2c(C2CCCCC2)c2ccc(C(=O)O)cc21`, the IC50 in assay [1] fell in the range of 1 to 500 nM. Besides, the EC50 in the assay with HCV replicon cells (Hepatitis C virus) was 1 to 500 nM.

In assay [1], `COc1ccc2c(c1)C=C(C(=O)N1C3CCC1CN(C)C3)Cn1c-2c(C2CCCCC2)c2ccc(C(=O)NS(=O)(=O)C(C)C)cc21` displayed a concentration for half-maximal inhibition (IC50) of 1 to 500 nM. For the same compound, the EC50 in the assay on HCV replicon cells (Hepatitis C virus) lay in the range of 1 to 500 nM.

As to `CCC(C)S(=O)(=O)NC(=O)c1ccc2c(C3CCCCC3)c3n(c2c1)CC(C(=O)N1C2CCC1CN(C)C2)=Cc1cc(OC)ccc1-3` (stereo not drawn), the IC50 in assay [1] lay in the range of 1 to 500 nM. The same compound returned an EC50 with HCV replicon cells (Hepatitis C virus) of 1 to 500 nM.

For the compound `COc1ccc2c(c1)C=C(C(=O)N1C3CCC1CN(C)C3)Cn1c-2c(C2CCCCC2)c2ccc(C(=O)NS(=O)(=O)N(C)C)cc21` [drawing 16], the IC50 in assay [1] lay in the range of 1 to 500 nM. For the same compound, the EC50 in the assay on HCV replicon cells is 1 to 500 nM.

For `COc1ccc2c(c1)C=C(C(=O)N1C3CCC1CN(C)C3)Cn1c-2c(C2CCCCC2)c2ccc(C(=O)NS(=O)(=O)N(C)C)cc21` [drawing 25], the IC50 in assay [1] was 1 to 500 nM. The same compound gave an EC50 with HCV replicon cells (Hepatitis C virus) of 1 to 500 nM.
